According to patent US5254682A, “Cyclic renin inhibitors containing 3(S)-amino-4-cyclohexyl-2(R)-hydroxy-butanoic acid or 4-cyclo-hexyl-(2R, 3S)-dihydroxybutanoic acid or related analogs” (Merck & Co., Inc., priority 1991, dated 1993):
Read-outs that look alike come from different tables or passages of the source. Where a SMILES comes first, the peptide text is derived from it. [ ]: non-standard residue; d: D form. The star is where a group is joined. Sta = CC(C)C[C@H](N)[C@@H](O)CC(=O)O; Isovaleryl = CC(C)CC(=O)*

Columns and labels:
[1] = amide bond, 2 steps
[2] = system: sodium-deficient Rhesus monkeys; assay: intravenous evaluation of renin inhibitors in conscious sodium-deficient Rhesus monkeys (blood pressure lowering); assay type: in vivo; settings: i.v. bolus
From the text: The following methods were used for in vivo evaluation of the renin inhibitors of Formula I: Intravenous evaluation of renin inhibitors in concious sodium-deficient Rhesus monkeys: Rhesus monkeys, male and female, weighing 2.6-4.5 Kg, were surgically prepared with chronic arterial and venous catheters and vascular access ports for direct monitoring of mean arterial pressure (MAP) and heart rate (HR). The animals were maintained on a low sodium diet (1.2 mmol Na/day) plus fruit for a week, and administered LASIX (furosemide) at 2.5 mg/Kg, intramuscularly the evening prior to the experiment. The animals had been trained to sit quietly in the chairs with water ad libium for the duration of the experiment. The inhibitors were administered by bolus injection using 0.5% acetic acid-5% dextrose in water as the vehicle (0.4 ml/Kg), and MAP and HR were measured. Blood samples were withdrawn at different time intervals beginning at the nadir of hypotensive response. PRA was determined as described above. […] A projected ED50 dose for each inhibitor was calculated using the following formula: ED50 (Test Inhibitor, umoles/Kg)=ED50 (SCRIP) X [IC50 (Test Inhibitor)/IC50 (SCRIP)], where the IC50 values were determined against human plasma renin. […] Percent inhibition of monkey PRA, changes in MAP and HR were calculated and plotted against time. […]

Compound: O=C(N[C@H]1CSCCC[C@H](CN2CCOCC2)OC(=O)[C@H](O)[C@H](CC2CCCCC2)NC1=O)OCc1ccccc1
- ring closure, yield of all isomers ([1]; from N[C@@H](CC1CCCCC1)[C@@H](O)C(=O)O[C@H](CCCSC[C@H](NC(=O)OCc1ccccc1)C(=O)O)CN1CCOCC1): 38%

Compound: CC(C)(C)OC(=O)N[C@H]1CNC(=O)CCCCOC(=O)[C@H](O)[C@H](CC2CCCCC2)NC1=O
- ring closure, yield of all isomers ([1]; from CC(C)(C)OC(=O)N[C@@H](CNC(=O)OCc1ccccc1)C(=O)N[C@@H](CC1CCCCC1)[C@@H](O)C(=O)OCCCCC(=O)OCc1ccccc1, DPPA, triethylamine): 27%

Compound: CC(C)CC(=O)N[C@@H](Cc1c[nH]cn1)C(=O)N1CCC[C@H]1C(=O)N[C@@H](Cc1ccccc1)C(=O)N[C@@H](Cc1c[nH]cn1)C(=O)N[C@@H](CC(C)C)[C@@H](O)CC(=O)N[C@@H](CC(C)C)C(=O)N[C@@H](Cc1ccccc1)C(N)=O [SCRIP, Iva-His-Pro-Phe-His-Sta-Leu-Phe-NH2] (Isovaleryl-HPFH[Sta]LF-NH2)
- ED50 (i.v. dose required to lower blood pressure by 50% of the maximal response) [2]: 0.039 µmol/kg

Compound: O=C1CC[C@H](NC(=O)OCc2ccccc2)C(=O)N[C@@H](CC2CCCCC2)[C@@H](O)C(=O)OC(CN2CCOCC2)CO1 (stereo partly shown)
- ring closure, yield of all isomers ([1]; from CC(C)(C)OC(=O)[C@H](CCC(=O)OCC(CN1CCOCC1)OC(=O)[C@@H]1OC(C)(C)N(C(=O)OC(C)(C)C)[C@H]1CC1CCCCC1)NC(=O)OCc1ccccc1, THF): 32%

Compound: O=C1CC[C@H](NC(=O)OCc2ccccc2)C(=O)N[C@@H](CC2CCCCC2)[C@@H](O)C(=O)OC(CN2CCOCC2)CN1 (stereo partly shown)
- ring closure, yield of all isomers ([1]; from CC(C)(C)OC(=O)[C@H](CCC(=O)NCC(CN1CCOCC1)OC(=O)[C@@H]1OC(C)(C)N(C(=O)OC(C)(C)C)[C@H]1CC1CCCCC1)NC(=O)OCc1ccccc1): 61%

Compound: CC(C)CC1CNC(=O)CC[C@H](NC(=O)OCc2ccccc2)C(=O)N[C@@H](CC2CCCCC2)[C@@H](O)C(=O)O1 (stereo partly shown)
- ring closure, yield of all isomers ([1]; from CC(C)CC(CNC(=O)CC[C@H](NC(=O)OCc1ccccc1)C(=O)OC(C)(C)C)OC(=O)[C@@H]1OC(C)(C)N(C(=O)OC(C)(C)C)[C@H]1CC1CCCCC1, THF): 51%

Compound: O=C(N[C@H]1CSCCCCOC(=O)[C@H](O)[C@H](CC2CCCCC2)NC1=O)OCc1ccccc1
- ring closure, yield of all isomers ([1]; from N[C@@H](CC1CCCCC1)[C@@H](O)C(=O)OCCCCSC[C@H](NC(=O)OCc1ccccc1)C(=O)O): 34%

Compound: CC(C)(C)OC(=O)N[C@H]1CCC(=O)NCCCC2(OCCO2)[C@H](O)[C@H](CC2CCCCC2)NC1=O
- ring closure, yield of all isomers ([1]; from CC(C)(C)OC(=O)N[C@@H](CCC(=O)OCc1ccccc1)C(=O)N[C@@H](CC1CCCCC1)[C@@H](O)C1(CCCN=[N+]=[N-])OCCO1, DPPA, triethylamine): 30%

Compound: CCCCC1CNC(=O)CC[C@H](NC(=O)OCc2ccccc2)C(=O)N[C@@H](CC2CCCCC2)[C@@H](O)C(=O)O1 (stereo partly shown)
- ring closure, yield of all isomers ([1]; from CCCCC(CNC(=O)CC[C@H](NC(=O)OCc1ccccc1)C(=O)OC(C)(C)C)OC(=O)[C@@H]1OC(C)(C)N(C(=O)OC(C)(C)C)[C@H]1CC1CCCCC1, EDC/HOBt): 54%

Compound: CC1CC(=O)NCCOC(=O)[C@H](O)[C@H](CC2CCCCC2)NC(=O)[C@H]1NC(=O)OCc1ccccc1 (stereo partly shown)
- ring closure, yield of all isomers ([1]; from CC(CC(=O)NCCOC(=O)[C@@H]1OC(C)(C)N(C(=O)OC(C)(C)C)[C@H]1CC1CCCCC1)[C@H](NC(=O)OCc1ccccc1)C(=O)OCC[Si](C)(C)C): 62%
